Reference: PubChem BioAssay AID651868 (The Scripps Research Institute Molecular Screening Center, 2012)

Biological target: Protein-arginine deiminase type-1 (Homo sapiens) (UniProt Q9ULC6)
Experiment: PubChem AID 651868
Conditions: recombinant PAD1, citrulline colorimetric, time-dependent inactivation; active compounds read high

Sequence of Protein-arginine deiminase type-1 (Homo sapiens) (Q9ULC6 whole entry, looked up): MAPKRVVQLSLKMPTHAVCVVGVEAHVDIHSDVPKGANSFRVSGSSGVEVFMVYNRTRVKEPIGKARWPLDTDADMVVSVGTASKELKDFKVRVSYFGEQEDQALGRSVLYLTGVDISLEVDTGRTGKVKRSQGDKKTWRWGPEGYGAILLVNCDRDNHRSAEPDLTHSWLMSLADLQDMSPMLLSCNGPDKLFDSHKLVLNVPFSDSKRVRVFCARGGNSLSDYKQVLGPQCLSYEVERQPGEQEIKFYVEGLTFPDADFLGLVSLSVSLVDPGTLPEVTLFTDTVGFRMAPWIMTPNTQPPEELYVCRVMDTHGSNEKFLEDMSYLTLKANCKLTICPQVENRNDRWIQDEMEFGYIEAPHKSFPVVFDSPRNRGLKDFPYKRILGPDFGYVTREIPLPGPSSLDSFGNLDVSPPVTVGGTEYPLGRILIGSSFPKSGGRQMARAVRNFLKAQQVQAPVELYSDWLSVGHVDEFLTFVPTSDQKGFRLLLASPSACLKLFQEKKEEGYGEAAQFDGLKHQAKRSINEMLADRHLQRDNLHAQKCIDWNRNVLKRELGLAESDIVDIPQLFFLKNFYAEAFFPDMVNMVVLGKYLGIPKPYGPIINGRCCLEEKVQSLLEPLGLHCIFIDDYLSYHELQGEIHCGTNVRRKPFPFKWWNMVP

kinact/KI: 58.3 M⁻¹ s⁻¹
Compound: NC1=CC(=O)c2ccc(-c3cccc(C(=O)O)n3)nc2C1=O
